Laboratory results from patent US12492181B2, “Gem-disubstituted piperidine melanocortin subtype-2 receptor (MC2R) antagonists and uses thereof” (Crinetics Pharmaceuticals, Inc., priority 2019, dated 2025).
pKi: −log10 of the molar value.

target: T1, hMC2 receptor (crude hMC2R membranes from CRE-bla-CHO-K1 cells stably expressing hMC2 receptor and hMRAP accessory protein) (Homo sapiens, UniProt Q01718); assay: hMC2 membrane binding assay ([125I]ACTH (1-39) Tyr23, SPA); details: displacement of 0.2 nM [125I]ACTH (1-39) Tyr23 from hMC2R membranes, 1.5 hours at room temperature; read-out: MC2R binding potency
T1 construct: crude membrane fractions
T1 sequence (Q01718 whole entry): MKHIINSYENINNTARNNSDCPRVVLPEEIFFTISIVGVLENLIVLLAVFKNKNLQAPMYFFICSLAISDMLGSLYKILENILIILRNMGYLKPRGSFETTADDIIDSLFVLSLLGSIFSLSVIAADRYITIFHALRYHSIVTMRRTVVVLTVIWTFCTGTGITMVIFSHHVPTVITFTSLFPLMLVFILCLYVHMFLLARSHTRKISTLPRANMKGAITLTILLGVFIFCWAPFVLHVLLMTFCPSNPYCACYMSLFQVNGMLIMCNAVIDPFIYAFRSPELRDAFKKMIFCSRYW
T1 sequence (Q8TCY5 whole entry partner): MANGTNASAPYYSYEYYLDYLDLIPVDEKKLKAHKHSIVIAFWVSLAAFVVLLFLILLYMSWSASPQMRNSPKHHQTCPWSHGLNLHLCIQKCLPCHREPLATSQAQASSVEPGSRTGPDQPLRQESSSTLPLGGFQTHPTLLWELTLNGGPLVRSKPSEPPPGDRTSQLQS
Summary of the method: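 Ki values come from non-linear regression of SPA scintillation counts, with compounds displacing [125I]ACTH(1-39) Tyr23. Membranes come from CRE-bla-CHO-K1 cells stably expressing hMC2 receptor together with hMRAP. They are preincubated with WGA-coated PVT SPA beads in 50 mM HEPES pH 7.4 with 0.20% BSA, Mg2+, Ca2+ and protease inhibitors.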

Row | Structure (SMILES) | pKi
1 | CCc1ncccc1-c1ccc(C2(C(=O)N[C@@H]3CCN(C)C3)CCN(c3ccc(C(F)(F)F)cc3C#N)CC2)cn1 [Compound 1-118, 1-[2-cyano-4-(trifluoromethyl)phenyl]-4-{2′-ethyl-[2,3′-bipyridin]-5-yl}-N-[(3R)-1-methylpyrrolidin-3-yl]piperidine-4-carboxamide] | > 8.00
2 | CCOc1ncccc1-c1ccc(C2(C(=O)N[C@@H]3CCNC3)CCN(c3ccc(C(F)(F)F)cc3C#N)CC2)cc1 [Compound 1-2, 1-[2-cyano-4-(trifluoromethyl)phenyl]-4-[4-(2-ethoxypyridin-3-yl)phenyl]-N-[(3R)-pyrrolidin-3-yl]piperidine-4-carboxamide] | > 8.00
3 | COc1ncc(F)cc1-c1ccc(C2(C(=O)N[C@@H]3CCN(C)C3)CCN(c3ccc(C(F)(F)F)cc3C#N)CC2)cn1 [Compound 1-86, 1-[2-cyano-4-(trifluoromethyl)phenyl]-4-{5′-fluoro-2′-methoxy-[2,3′-bipyridin]-5-yl}-N-[(3R)-1-methylpyrrolidin-3-yl]piperidine-4-carboxamide] | > 8.00
4 | CN1CC[C@H](NC(=O)C2(c3ccc(-c4ccc[nH]4)nc3)CCN(c3ccc(C(F)(F)F)cc3C#N)CC2)C1 [Compound 1-143, 1-[2-cyano-4-(trifluoromethyl)phenyl]-N-[(3S)-1-methylpyrrolidin-3-yl]-4-[6-(1H-pyrrol-2-yl)pyridin-3-yl]piperidine-4-carboxamide] | > 8.00
5 | CC(=O)c1sccc1-c1ccc(C2(C(=O)N[C@H]3CCN(C)C3)CCN(c3ccc(C(F)(F)F)cc3C#N)CC2)cn1 [Compound 1-146, 4-[6-(2-acetylthiophen-3-yl)pyridin-3-yl]-1-[2-cyano-4-(trifluoromethyl)phenyl]-N-[(3S)-1-methylpyrrolidin-3-yl]piperidine-4-carboxamide] | > 8.00
6 | CN1CC(CNC(=O)C2(c3ccc(-c4cccn4C)nc3)CCN(c3ccc(C(F)(F)F)cc3C#N)CC2)C1 [Compound 1-220, 1-[2-cyano-4-(trifluoromethyl)phenyl]-4-[6-(1-methyl-1H-pyrrol-2-yl)pyridin-3-yl]-N-[(1-methylazetidin-3-yl)methyl]piperidine-4-carboxamide] | > 8.00
7 | CNC[C@H](C)NC(=O)C1(c2cnc(-c3cccn3C)c(F)c2)CCN(c2ccc(C(F)(F)F)cc2C#N)CC1 [Compound 1-326, 1-[2-cyano-4-(trifluoromethyl)phenyl]-4-[5-fluoro-6-(1-methyl-1H-pyrrol-2-yl)pyridin-3-yl]-N-[(2S)-1-(methylamino)propan-2-yl]piperidine-4-carboxamide] | > 8.00
8 | CCc1ccccc1-c1ccc(C2(C(=O)N[C@@H]3CCN(C)C3)CCN(c3ccc(C(F)(F)F)cc3C#N)CC2)cn1 [Compound 1-60, 1-[2-cyano-4-(trifluoromethyl)phenyl]-4-[6-(2-ethylphenyl)pyridin-3-yl]-N-[(3R)-1-methylpyrrolidin-3-yl]piperidine-4-carboxamide] | > 8.00
9 | CNCCNC(=O)C1(c2cnc(-c3ccccc3OC)c(F)c2)CCN(c2ccc(C(F)(F)F)cc2F)CC1 [Compound 1-293, 1-[2-fluoro-4-(trifluoromethyl)phenyl]-4-[5-fluoro-6-(2-methoxyphenyl)pyridin-3-yl]-N-[2-(methylamino)ethyl]piperidine-4-carboxamide] | > 8.00
10 | Cc1ccccc1-c1ccc(C2(C(=O)N[C@@H]3CCN(C)C3)CCN(c3ccc(C(F)(F)F)cc3C#N)CC2)cn1 [Compound 1-66, 1-[2-cyano-4-(trifluoromethyl)phenyl]-4-[6-(2-methylphenyl)pyridin-3-yl]-N-[(3R)-1-methylpyrrolidin-3-yl]piperidine-4-carboxamide] | > 8.00
11 | COc1ncccc1-c1ccc(C2(C(=O)N[C@@H]3CCN(C)C3)CCN(c3ccc(C(F)(F)F)cc3C#N)CC2)cn1 [Compound 1-98, 1-[2-cyano-4-(trifluoromethyl)phenyl]-4-{2′-methoxy-[2,3′-bipyridin]-5-yl}-N-[(3R)-1-methylpyrrolidin-3-yl]piperidine-4-carboxamide] | > 8.00
12 | CCOc1ccccc1-c1ccc(C2(C(=O)N[C@H]3CCN(C)C3)CCN(c3ccc(C(F)(F)F)cc3F)CC2)cn1 [Compound 1-145, 4-[6-(2-ethoxyphenyl)pyridin-3-yl]-1-[2-fluoro-4-(trifluoromethyl)phenyl]-N-[(3S)-1-methylpyrrolidin-3-yl]piperidine-4-carboxamide] | > 8.00
13 | CCOc1ccccc1-c1ncc(C2(C(=O)N[C@H]3CCN(C)C3)CCN(c3ccc(C(F)(F)F)nc3C#N)CC2)cc1F [Compound 1-125, 1-[2-cyano-6-(trifluoromethyl)pyridin-3-yl]-4-[6-(2-ethoxyphenyl)-5-fluoropyridin-3-yl]-N-[(3S)-1-methylpyrrolidin-3-yl]piperidine-4-carboxamide] | > 8.00
14 | COc1ccccc1-c1ccc(C2(C(=O)NC[C@H]3COCCN3C)CCN(c3ccc(C(F)(F)F)cc3C#N)CC2)cn1 [Compound 1-328, 1-[2-cyano-4-(trifluoromethyl)phenyl]-4-[6-(2-methoxyphenyl)pyridin-3-yl]-N-{[(3S)-4-methylmorpholin-3-yl]methyl}piperidine-4-carboxamide] | 7.00 to 8.00
15 | CCc1sccc1-c1ccc(C2(C(=O)N[C@H]3CCN(C)C3)CCN(c3ccc(C(F)(F)F)cc3C#N)CC2)cn1 [Compound 1-147, 1-[2-cyano-4-(trifluoromethyl)phenyl]-4-[6-(2-ethylthiophen-3-yl)pyridin-3-yl]-N-[(3S)-1-methylpyrrolidin-3-yl]piperidine-4-carboxamide] | > 8.00
16 | CN1CC(NC(=O)C2(c3ccc(-c4cccn4C)nc3)CCN(c3ccc(C(F)(F)F)cc3C#N)CC2)C1 [Compound 1-219, 1-[2-cyano-4-(trifluoromethyl)phenyl]-4-[6-(1-methyl-1H-pyrrol-2-yl)pyridin-3-yl]-N-(1-methylazetidin-3-yl)piperidine-4-carboxamide] | > 8.00
17 | CCOc1ncccc1-c1ccc(C2(NC(=O)N3CC(NC)C3)CCN(c3ccc(C(F)(F)F)cc3C#N)CC2)cn1 [Compound 2-23, N-{1-[2-cyano-4-(trifluoromethyl)phenyl]-4-{2′-ethoxy-[2,3′-bipyridin]-5-yl}piperidin-4-yl}-3-(methylamino)azetidine-1-carboxamide] | > 8.00
18 | CCOc1ncccc1-c1ncc(C2(C(=O)N[C@@H](C)CNC)CCN(c3ccc(C(F)(F)F)cc3F)CC2)cc1F [Compound 1-315, 4-{2′-ethoxy-3-fluoro-[2,3′-bipyridin]-5-yl}-1-[2-fluoro-4-(trifluoromethyl)phenyl]-N-[(2S)-1-(methylamino)propan-2-yl]piperidine-4-carboxamide] | > 8.00
19 | CCOc1ccccc1-c1ncc(C2(C(=O)NCCNC)CCN(c3ccc(C(F)(F)F)cc3Cl)CC2)cc1F [Compound 1-292, 1-[2-chloro-4-(trifluoromethyl)phenyl]-4-[6-(2-ethoxyphenyl)-5-fluoropyridin-3-yl]-N-[2-(methylamino)ethyl]piperidine-4-carboxamide] | > 8.00
20 | COc1ccccc1-c1ccc(C2(C(=O)N[C@H]3CCN(C)C3)CCN(c3ccc(C(F)(F)F)cc3Cl)CC2)cn1 [Compound 1-144, 1-[2-chloro-4-(trifluoromethyl)phenyl]-4-[6-(2-methoxyphenyl)pyridin-3-yl]-N-[(3S)-1-methylpyrrolidin-3-yl]piperidine-4-carboxamide] | > 8.00
